The numbers were not newly measured in PMC2365120, “Antitumour Metallocenes: Effect of DMSO on the Stability of Cp2TiX2 and Implications for Anticancer Activity” (Metal-Based Drugs, 1998), which cites them from elsewhere.

The structures appear in SMILES notation. Like-named read-outs stand apart in the source and are kept apart here.

As usually defined, the LD50 is the dose at which mortality reaches 50%.

The conditions of data set [1]: samples administered in 10%DMSO/saline.
The conditions of data set [2]: for % Cp hydrolysis: Table 3, D2O (pD ~2-3), reaction time 24 h.
Data set [3] concerns fluid Ehrlich ascites tumour. Particulars: for Optimum Cure Rate (%) / Optimum dose range: fluid Ehrlich ascites tumour, samples administered in 10%DMSO/saline.

In the case of `[Cl-].[Cl-].[NH3+]CC(=O)[O][Ti+2][O]C(=O)C[NH3+].c1cc[cH-]c1.c1cc[cH-]c1` [Compound 13, titanocene bis(glycine)], in data set [1] (Table 1, Cp2TiX2), the median lethal dose (LD50) is listed as above 160 mg/kg. In addition, the “% Cp hydrolysis” value in data set [2] was below 2%. For the same compound, in data set [3] (Table 1, Cp2TiX2), the “Optimum Cure Rate (%)” value is 50%.

Take `O=[N+]([O-])c1ccc([O][Ti+2][O]c2ccc([N+](=O)[O-])cc2)cc1.c1cc[cH-]c1.c1cc[cH-]c1` [Compound 10]: in data set [1] (Table 1, Cp2TiX2), the LD50 is 260 mg/kg. Further, in data set [3] (Table 1, Cp2TiX2), the “Optimum Cure Rate (%)” value is on record as 10% and the Optimum dose range was 180-240 mg/kcj.

As for `Nc1ccccc1[S][Ti+2][Cl].c1cc[cH-]c1.c1cc[cH-]c1` [Compound 17], the LD50 in data set [1] (Table 2, Cp2TiClX) is 100 mg/kg. Besides, the “Optimum Cure Rate (%)” value in data set [3] (Table 2, Cp2TiClX) was 13%.

For the compound `O=C(O)C(Cl)(Cl)Cl.O=C(O)C(Cl)(Cl)Cl.[Ti+2].c1cc[cH-]c1.c1cc[cH-]c1` [Compound 8, titanocene bis(trichloroacetate)], the Aqueous solubility entry is “poor”. Further, the LD50 in data set [1] (Table 1, Cp2TiX2) is reported as 440 mg/kg. In data set [3] (Table 1, Cp2TiX2), the “Optimum Cure Rate (%)” value was 100% and the Optimum dose range was 100-360 mg/kcj.

Regarding `[Cl-].[Cl-].[Ti+4].c1cc[cH-]c1.c1cc[cH-]c1` [Compound 1, Titanocene dichloride, reference compound], the LD50 in data set [1] (Table 1, Cp2TiX2) is listed as 100 mg/kg. In addition, the “% Cp hydrolysis” value in data set [2] was 0%. Also, the “Time the Cp rings remain metal bound” value in data set [2] (in water, low pH after halide hydrolysis) is “over 24 h”. Besides, in data set [3] (Table 1, Cp2TiX2), the “Optimum Cure Rate (%)” value is 100% and the Optimum dose range is 40-60 mg/kcj.

For the compound `[F][Ti+2][F].c1cc[cH-]c1.c1cc[cH-]c1` [Compound 2], the LD50 in data set [1] (Table 1, Cp2TiX2) is on record as 60 mg/kg. In data set [3] (Table 1, Cp2TiX2), the “Optimum Cure Rate (%)” value is recorded as 100% and the Optimum dose range is 40 mg/kcj.

In the case of `[I][Ti+2][I].c1cc[cH-]c1.c1cc[cH-]c1` [Compound 4], the LD50 in data set [1] (Table 1, Cp2TiX2) was 145 mg/kg. Also, in data set [3] (Table 1, Cp2TiX2), the “Optimum Cure Rate (%)” value is given as 100% and the Optimum dose range was 60-100 mg/kcj.

Consider `[Br][Ti+2][Br].c1cc[cH-]c1.c1cc[cH-]c1` [Compound 3], for which the LD50 in data set [1] (Table 1, Cp2TiX2) is recorded as 135 mg/kg. In data set [3] (Table 1, Cp2TiX2), the “Optimum Cure Rate (%)” value is reported as 100%.

Take `Fc1c(F)c(F)c([O][Ti+2][O]c2c(F)c(F)c(F)c(F)c2F)c(F)c1F.c1cc[cH-]c1.c1cc[cH-]c1` [Compound 11]: the LD50 in data set [1] (Table 1, Cp2TiX2) is listed as 480 mg/kg. For the same compound, in data set [3] (Table 1, Cp2TiX2), the “Optimum Cure Rate (%)” value is listed as 100% and the Optimum dose range is listed as 340-360 mg/kcj.

On to `O=C(O)/C=C\C(=O)[O][Ti+2][O]C(=O)/C=C\C(=O)O.c1cc[cH-]c1.c1cc[cH-]c1` [Compound 9], for which the Aqueous solubility result is recorded as “increase in aqueous solubility”. Moreover, the LD50 in data set [1] (Table 1, Cp2TiX2) is on record as 170 mg/kg. Also, in data set [3] (Table 1, Cp2TiX2), the “Optimum Cure Rate (%)” value is reported as 100% and the Optimum dose range is given as 60-120 mg/kcj.

`[Cl][Ti+]([Cl])[Cl].c1cc[cH-]c1` [CpTiCI3, reference compound]: in data set [3] (partially hydrolysed derivative lacking one Cp ring), the Antitumour activity result is recorded as “reduced activity”.

For the compound `S=C=[N][Ti+2][N]=C=S.c1cc[cH-]c1.c1cc[cH-]c1` [Compound 5], in data set [1] (Table 1, Cp2TiX2), the LD50 is given as 135 mg/kg. Moreover, in data set [3] (Table 1, Cp2TiX2), the “Optimum Cure Rate (%)” value is on record as 100% and the Optimum dose range is listed as 80 mg/kcj.

As to `C[C@H]([NH3+])C(=O)[O][Ti+2][O]C(=O)[C@H](C)[NH3+].[Cl-].[Cl-].c1cc[cH-]c1.c1cc[cH-]c1` [Compound 14], the Aqueous solubility result was “highly water soluble”. Moreover, in data set [1] (Table 1, Cp2TiX2), the LD50 was 185 mg/kg. Moreover, in data set [3] (Table 1, Cp2TiX2), the “Optimum Cure Rate (%)” value is 50% and the Optimum dose range is listed as 160 mg/kcj.

Turning to `Fc1c(F)c(F)c([S][Ti+2][S]c2c(F)c(F)c(F)c(F)c2F)c(F)c1F.c1cc[cH-]c1.c1cc[cH-]c1` [Compound 12], the LD50 in data set [1] (Table 1, Cp2TiX2) is 260 mg/kg. Further, in data set [3] (Table 1, Cp2TiX2), the “Optimum Cure Rate (%)” value is 100% and the Optimum dose range is recorded as 120-180 mg/kcj.

For the compound `[Cl][Ti+2][O]c1ccc(Cl)c(Cl)c1Cl.c1cc[cH-]c1.c1cc[cH-]c1` [Compound 15], the LD50 in data set [1] (Table 2, Cp2TiClX) is reported as 200 mg/kg. Moreover, in data set [3] (Table 2, Cp2TiClX), the “Optimum Cure Rate (%)” value is 50% and the Optimum dose range is 60 to 140 mg/kg.

With `Cc1ccccc1[S][Ti+2][Cl].c1cc[cH-]c1.c1cc[cH-]c1` [Compound 16], in data set [3] (Table 2, Cp2TiClX), the “Optimum Cure Rate (%)” value was 25% and the Optimum dose range was 30 to 60 mg/kg.
